Assay results from PubChem BioAssay (NCI).
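In this assay, cells in 96-well plates receive the compound at five concentrations for 48 hours. Endpoints are linearly interpolated between the surrounding concentrations. GI50 marks 50% less growth. TGI marks complete inhibition of growth.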

Key:
Test in all cases: inhibition of tumour cell growth, NCI panel, 48 h
TK-10 renal = system: TK-10 renal
HCT-15 colon = system: HCT-15 colon
KM12 colon = system: KM12 colon
NCI/ADR-RES ovarian = system: NCI/ADR-RES ovarian
DU-145 prostate = system: DU-145 prostate
M14 melanoma = system: M14 melanoma
OVCAR-3 ovarian = system: OVCAR-3 ovarian
CCRF-CEM leukemia = system: CCRF-CEM leukemia
OVCAR-8 ovarian = system: OVCAR-8 ovarian
MALME-3M melanoma = system: MALME-3M melanoma

Structure (SMILES) | GI50 (TK-10 renal) [µM] | TGI (TK-10 renal) [µM] | GI50 (HCT-15 colon) [µM] | TGI (HCT-15 colon) [µM] | GI50 (KM12 colon) [µM] | TGI (KM12 colon) [µM] | GI50 (NCI/ADR-RES ovarian) [µM] | TGI (NCI/ADR-RES ovarian) [µM] | GI50 (DU-145 prostate) [µM] | TGI (DU-145 prostate) [µM] | GI50 (M14 melanoma) [µM] | TGI (M14 melanoma) [µM] | GI50 (OVCAR-3 ovarian) [µM] | TGI (OVCAR-3 ovarian) [µM] | GI50 (CCRF-CEM leukemia) [µM] | TGI (CCRF-CEM leukemia) [µM] | GI50 (OVCAR-8 ovarian) [µM] | TGI (OVCAR-8 ovarian) [µM] | GI50 (MALME-3M melanoma) [µM] | TGI (MALME-3M melanoma) [µM]
CS(=O)(=O)c1nccc(-c2c(-c3cccc(OCc4ccccc4)c3)nc3sccn23)n1 | 53.2 | > 100 | 12 | > 100 | 4.64 | 9.98 | 20.3 | > 100 | 1.76 | 3.31 | 13.9 | > 100 | 14.4 | > 100 | > 30.1 | > 100 | > 27.4 | > 100 | 16.4 | > 100
COc1ccc(C2CC(c3ccc4ccccc4c3)=NN2/C=C2\SC(=S)N(NC(=O)Cc3ccccc3Nc3c(Cl)cccc3Cl)C2=O)cc1 (centres undefined) | 3.57 | 43.2 | 0.467 | > 65.1 | 0.37 | > 33.5 | 0.421 | > 34.5 | 0.404 | 27.1 | 0.4 | 5.4 | 0.343 |  | 0.239 | > 100 | 0.693 | > 100 | 1.34 | > 49
Cc1cc(C)nc(NS(=O)(=O)c2ccc(Nc3nc4nc(NCc5ccccc5)nc(-c5ccc(O)cc5)c4c(=O)[nH]3)cc2)n1 | 28 | > 100 | 32.4 | > 100 | 15.5 | > 100 | > 100 | > 100 | 25.9 | > 100 | 37.5 | > 100 | 6.18 | 29.5 | 54.6 | > 100 | 36.5 | > 100 | 32.8 | > 100
COc1ccc(NC(=O)COc2ccccc2)c(C(N)=O)c1 | 18.3 | > 100 | 0.523 | > 100 | 0.52 | > 50.3 | 0.574 | 11.9 | 2.31 | > 62.2 | 0.499 | > 100 | 0.403 | 2.88 | 0.961 | > 100 | 3.01 | > 100 | 69 | > 100
COc1ccc2c(c1)O/C(=C\c1ccc([N+](=O)[O-])o1)C2=O | 2.13 | 9.49 | 0.271 | 1.26 | 1.37 | 3.42 | 2.74 | > 30.1 | 0.775 | 7.94 | 1.64 | 3.74 | 1.19 | 2.53 | 0.34 | 1.7 | 1.41 | 7.46 | 2.45 | 5.77
NNC(=O)C(O)C(O)C(O)CO (centres undefined) |  | > 100 |  | > 100 |  | > 100 |  | > 100 |  | > 100 |  | > 100 |  | > 100 |  | > 100 |  | > 100 |  | > 100
Nc1nc(=O)c2[nH]cnc2n1O |  | > 100 |  | > 100 |  | > 100 |  | > 100 |  | > 100 |  | > 100 |  | > 100 |  | > 100 |  | > 100 |  | > 100
CN(C)c1ccc(/C=N/NC(=O)CSc2nc3sc4c(c3c(=O)n2-c2ccccc2)CCCCC4)cc1 | 4.16 | > 100 | 3.96 | > 100 | > 100 | > 100 | 7.85 | > 100 | 3.41 | > 100 | 8.26 | > 100 | 3.62 | > 100 | 5.82 | > 100 | 4.83 | > 100 | 3.45 | > 100
C/C(=N\NC(=O)c1cccc(S(=O)(=O)N2CCN(C)CC2)c1)c1cc(Cl)ccc1O | 0.491 | > 88.6 | 0.27 | > 43.6 | 0.713 | > 66.8 | 1.33 | 14.9 | 1.15 | > 100 | 1.06 | 9.85 | 0.385 | > 100 | 0.422 | > 100 | 0.494 | > 100 | 2.39 | 36.6
C=C(c1ccc(OC)c(/C=C/C(=O)c2cc(OC)c(OC)c(OC)c2)c1)c1cc(OC)c(OC)c(OC)c1 | 2.59 | 7.9 | 0.552 | 2.79 | 1.16 | 2.72 | 0.936 | 4.85 | 1.32 | 3.11 | 1.59 | 4.43 | 1.53 | 3.18 | 0.359 | > 100 | 0.716 | 11.9 | 1.88 | 4.45
COc1ccc2nc(-c3ccc(Cl)cc3)cc(-c3nnc(SCC(=O)Nc4ccc(/C(C)=N\O)cc4)o3)c2c1 | 1.61 | 8.05 | 1.88 | 16.4 | 1.53 | 5.46 | 1.29 | 3.75 | 1.52 | 5.53 | 1.81 | 7.58 | 1.58 | 5.47 | 2.49 | > 50 | 1.15 | 2.78 | 1.28 | 3.97
CC/C=C\C[C@H](O)C/C=C1/C(=O)C=C[C@@H]1C/C=C\CCCC(=O)OCCS(=O)(=O)c1ccccc1 | 5.58 | 17.3 | 2.84 | 11.4 | 2.09 | 6.05 | 3.43 | 20.5 | 5.24 | 17.8 | 3.67 | 13.7 | 3.19 | 12 | 2.44 | 9.26 | 4.07 | 15.3 | 6.71 | 22.3
COc1ccccc1CN=C1NC(=O)/C(=C/c2ccc3ncccc3c2)S1 | 7.97 | > 25 | 4.55 | > 25 | 6.18 | > 16.9 | 11.2 | > 25 | 11 | > 25 | 14.5 | > 25 | 7.13 | 24.9 | 7.01 | > 25 | 8.17 | > 25 | > 25 | > 25
CC(/C=C/C=C\C=C\C=C(/C)C(=O)NC(C)CO)=C\C(C)C(O)/C(C)=C/C(C)CCc1ccccc1 (centres undefined) |  | 32.1 |  | 31.1 |  | 19.1 |  | 93 |  | > 100 |  | 23 |  | 20 |  | > 56.6 |  | 25 |  | 22.3
